In brackets after ≈: the same amount, converted by molar mass.
Legend:
Mycolicibacter terrae = assay: Antimycobacterial activity against Mycobacterium terrae after 10 days by microbroth dilution method; format: functional; conditions: 240 h
[1] = Acute toxicity in mouse administered as single po dose; format: organism-based; conditions: in vivo
[2] = tested on: Mycobacterium tuberculosis; assay: Antimycobacterial activity against Mycobacterium tuberculosis H37Rv after 10 days by microbroth dilution method; format: functional; conditions: 240 h
Mycobacterium avium = assay: Antimycobacterial activity against Mycobacterium avium after 10 days by microbroth dilution method; format: functional; conditions: 240 h
[3] = Acute toxicity in mouse administered as single ip dose; format: organism-based; conditions: in vivo

Brc1cncnc1-c1cccs1
MIC (Mycolicibacter terrae): 0.3 µg/mL (≈ 1.24 µM) | LD50 [1]: 315 mg/kg | MIC [2]: 0.7 µg/mL (≈ 2.9 µM) | MIC (Mycobacterium avium): 0.3 µg/mL (≈ 1.24 µM)

Brc1cncnc1-c1ccc(-c2cccs2)s1
MIC (Mycolicibacter terrae): 0.7 µg/mL (≈ 2.17 µM)

Brc1cncnc1-c1ccc(-c2ccccc2)s1
MIC [2]: 6.25 µg/mL (≈ 19.7 µM)

Brc1cncnc1-c1ccco1
MIC (Mycolicibacter terrae): 0.7 µg/mL (≈ 3.11 µM) | LD50 [1]: 405 mg/kg | MIC [2]: 1.5 µg/mL (≈ 6.67 µM) | MIC (Mycobacterium avium): 0.7 µg/mL (≈ 3.11 µM)

C(=C\c1cncnc1-c1cccs1)/c1ccccc1
MIC [2]: 12.5 µg/mL (≈ 47.3 µM)

C(=C\c1cncnc1-c1ccc(-c2ccccc2)s1)/c1ccccc1
MIC [2]: 12.5 µg/mL (≈ 36.7 µM)

C(=C\c1cncnc1-c1ccc(-c2cccs2)s1)/c1ccccc1
MIC (Mycolicibacter terrae): 0.7 µg/mL (≈ 2.02 µM)

C(=C\c1cncnc1-c1ccco1)/c1ccccc1
MIC [2]: 6.25 µg/mL (≈ 25.2 µM)

C(=C\c1cncnc1-c1cccs1)/c1ccc(-c2ccccc2)cc1
MIC [2]: 12.5 µg/mL (≈ 36.7 µM)

C(=C\c1cncnc1-c1ccc(-c2ccccc2)s1)/c1ccc(-c2ccccc2)cc1
MIC [2]: 12.5 µg/mL (≈ 30 µM)

C(=C\c1cncnc1-c1ccc(-c2cccs2)s1)/c1ccc(-c2ccccc2)cc1
MIC (Mycolicibacter terrae): 0.7 µg/mL (≈ 1.66 µM) | LD50 [1]: 78 mg/kg | MIC [2]: 1.5 µg/mL (≈ 3.55 µM) | MIC (Mycobacterium avium): 0.7 µg/mL (≈ 1.66 µM)

C(=C\c1cncnc1-c1ccco1)/c1ccc(-c2ccccc2)cc1
MIC [2]: 12.5 µg/mL (≈ 38.5 µM)

c1csc(-c2ccncn2)c1
MIC [2]: 12.5 µg/mL (≈ 77.1 µM)

c1ccc(-c2ccc(-c3ccncn3)s2)cc1
MIC [2]: 12.5 µg/mL (≈ 52.5 µM)

c1csc(-c2ccc(-c3ccncn3)s2)c1
MIC [2]: 12.5 µg/mL (≈ 51.2 µM)

NNC(=O)c1ccncc1 [ISONIAZID]
MIC (Mycolicibacter terrae): 0.1 µg/mL (≈ 0.729 µM) | LD50 [1]: 133 mg/kg | MIC [2]: 0.1 µg/mL (≈ 0.729 µM) | MIC (Mycobacterium avium): 0.1 µg/mL (≈ 0.729 µM) | LD50 [3]: 151 mg/kg

NC(=O)c1cnccn1 [PYRAZINAMIDE]
MIC [2]: 12.5 µg/mL (≈ 102 µM) | LD50 [3]: 1680 mg/kg

— ChEMBL document CHEMBL3297728, “Synthesis and antituberculosis activity of novel 5-styryl-4-(hetero)aryl-pyrimidines via combination of the Pd-catalyzed Suzuki cross-coupling and S(N)(H) reactions” (Bioorg Med Chem Lett, 2014)
